Experimental data as given in PubChem BioAssay AID248 (DTP/NCI, 2004).
Inconclusive results and toxic doses are left out. No stated cut-off is given here; in the data, active means T/C of 150% or more; inactive means T/C below 125%.

Test system: L1210 leukemia ip in BDF1 mice, survival T/C
Experiment: NCI In Vivo Anticancer Drug Screen. Data for tumor model L1210 Leukemia (intraperitoneal) in B6D2F1 (BDF1) mice
Conditions: endpoint: mean survival time, higher = longer survival
How it was run: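 Transplantable tumor model; survival measured in treated vs vehicle control mice. Value = treated/control.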

[1] = dose: 100.0 mg/kg/injection, schedule: Q04DX003 (ip), vehicle: saline
[2] = dose: 200.0 mg/kg/injection, schedule: Q04DX003 (ip), vehicle: saline
[3] = dose: 400.0 mg/kg/injection, schedule: Q04DX003 (ip), vehicle: saline

Measured: T/C

N#Cc1[nH]cnc1NN=NCCCl
inactive: dose: 12.5 mg/kg/injection, schedule: Q01DX001 (ip), vehicle: saline with Tween-80 109 % of control | dose: 25.0 mg/kg/injection, schedule: Q01DX001 (ip), vehicle: saline with Tween-80 104 % of control | dose: 50.0 mg/kg/injection, schedule: Q01DX001 (ip), vehicle: saline with Tween-80 116 % of control | dose: 100.0 mg/kg/injection, schedule: Q01DX001 (ip), vehicle: saline with Tween-80 118 % of control

O=C(O)C(=O)Cc1c(Cl)cccc1[N+](=O)[O-]
inactive: dose: 50.0 mg/kg/injection, schedule: Q01DX001 (ip), vehicle: saline 104 % of control | dose: 100.0 mg/kg/injection, schedule: Q01DX001 (ip), vehicle: saline 101 % of control | dose: 200.0 mg/kg/injection, schedule: Q01DX001 (ip), vehicle: saline 106 % of control | dose: 400.0 mg/kg/injection, schedule: Q01DX001 (ip), vehicle: saline 104 % of control

CN1CCc2ccccc2C1Cc1cc(OCc2ccccc2)ccc1N (stereo not drawn)
inactive: dose: 10.0 mg/kg/injection, schedule: Q01DX001 (ip), vehicle: carboxymethylcellulose (CMC) 89 % of control | dose: 20.0 mg/kg/injection, schedule: Q01DX001 (ip), vehicle: carboxymethylcellulose (CMC) 95 % of control | dose: 40.0 mg/kg/injection, schedule: Q01DX001 (ip), vehicle: carboxymethylcellulose (CMC) 93 % of control | dose: 80.0 mg/kg/injection, schedule: Q01DX001 (ip), vehicle: carboxymethylcellulose (CMC) 98 % of control

CCCCCCCCCCCCCCCCCCOC(=O)C(C(C)=O)C(c1cccc([N+](=O)[O-])c1)C(C(C)=O)C(=O)O (stereo not drawn)
inactive: dose: 25.6 mg/kg/injection, schedule: Q04DX002 (ip), vehicle: saline with Tween-80 87 % of control | dose: 64.0 mg/kg/injection, schedule: Q04DX002 (ip), vehicle: saline with Tween-80 95 % of control | dose: 100.0 mg/kg/injection, schedule: Q04DX003 (ip), vehicle: saline with Tween-80 90 % of control | dose: 160.0 mg/kg/injection, schedule: Q04DX002 (ip), vehicle: saline with Tween-80 95 % of control | dose: 400.0 mg/kg/injection, schedule: Q04DX002 (ip), vehicle: saline with Tween-80 91 % of control | dose: 400.0 mg/kg/injection, schedule: Q04DX003 (ip), vehicle: saline with Tween-80 92 % of control

O=[N+]([O-])C(CO)(CO)CC(F)(F)F
inactive: dose: 3.13 mg/kg/injection, schedule: Q01DX009 (ip), vehicle: saline 96 % of control | dose: 6.25 mg/kg/injection, schedule: Q01DX009 (ip), vehicle: saline 98 % of control | dose: 12.5 mg/kg/injection, schedule: Q01DX009 (ip), vehicle: saline 102 % of control

O=C(Nc1ccc(C(=O)O)cc1)Nc1ccccc1C(F)(F)F
inactive: dose: 100.0 mg/kg/injection, schedule: Q01DX009 (ip), vehicle: gum acacia 100 % of control | dose: 200.0 mg/kg/injection, schedule: Q01DX009 (ip), vehicle: gum acacia 102 % of control | dose: 400.0 mg/kg/injection, schedule: Q01DX009 (ip), vehicle: gum acacia 96 % of control

C1=C2CN3CCC45c6ccccc6N6CCC(OC1)C(C2CC34)C65 (stereo not drawn)
inactive: dose: 1.25 mg/kg/injection, schedule: Q01DX001 (ip), vehicle: other 105 % of control

COc1ccc2nc3cc(Cl)ccc3c(NCCO)c2c1
inactive: dose: 75.0 mg/kg/injection, schedule: Q01DX001 (ip), vehicle: Klucel (hydroxypropylcellulose) (HPC) 100 % of control | dose: 100.0 mg/kg/injection, schedule: Q01DX001 (ip), vehicle: carboxymethylcellulose (CMC) 100 % of control | [1] 96 % of control | dose: 150.0 mg/kg/injection, schedule: Q01DX001 (ip), vehicle: Klucel (hydroxypropylcellulose) (HPC) 96 % of control | dose: 200.0 mg/kg/injection, schedule: Q01DX001 (ip), vehicle: carboxymethylcellulose (CMC) 100 % of control | [2] 96 % of control | dose: 300.0 mg/kg/injection, schedule: Q01DX001 (ip), vehicle: Klucel (hydroxypropylcellulose) (HPC) 96 % of control | dose: 400.0 mg/kg/injection, schedule: Q01DX001 (ip), vehicle: carboxymethylcellulose (CMC) 108 % of control | [3] 89 % of control

CCNC(=O)CCC(N)C(=O)O (stereo not drawn)
inactive: dose: 100.0 mg/kg/injection, schedule: Q01DX009 (ip), vehicle: saline 97 % of control | [1] 97 % of control | dose: 200.0 mg/kg/injection, schedule: Q01DX009 (ip), vehicle: saline 97 % of control | [2] 101 % of control | dose: 400.0 mg/kg/injection, schedule: Q01DX009 (ip), vehicle: saline 95 % of control | [3] 101 % of control

Cc1ccccc1C(O)(c1ccccc1C)C1(O)CCN(C)CC1
inactive: dose: 9.37 mg/kg/injection, schedule: Q01DX009 (ip), vehicle: saline 94 % of control | dose: 18.75 mg/kg/injection, schedule: Q01DX009 (ip), vehicle: saline 96 % of control | dose: 37.5 mg/kg/injection, schedule: Q01DX009 (ip), vehicle: saline 100 % of control
